Assay results as given in patent US11312701B2, “Formylpyridine derivative having FGFR4 inhibitory activity, preparation method therefor and use thereof” (Abbisko Therapeutics Co., Ltd., priority 2017, dated 2022).

Columns and labels:
[1] = test system: Huh7 hepatocellular carcinoma cells; test: Cell Titer Glo (CTG) cell proliferation experiment; assay type: cell-based; conditions: Homo sapiens, 72 h, HuH-7 cells, 3 days; for IC50: concentration leading to absolute half growth inhibition; for EC50: concentration leading to half maximal growth inhibition
Method: Cell Titer Glo (CTG) experiment was used in the present invention to evaluate the functional effects of the compounds on cell proliferation. Huh7 hepatocellular carcinoma cells (Catalog No. TChU182) from the Chinese Academy of Sciences cell bank were cultured in DMEM with high glucose (Gibco, cat. No. 1773536), 10% fetal bovine serum (Gibco, 10099-141) at 37° C., in a 5% CO2 incubator. Compound-mediated inhibition of cell proliferation/survival was assessed by quantification of cellular ATP levels using CTG reagent (Promega, #G7573). The specific experimental procedure was as follows: • 1. The cells were seeded into a tissue culture medium-treated 96-well plate (Costar #3904) at 3500 cells/well/90 μL of fresh medium; • 2. 10 μL of medium containing a compound concentration of 10 fold of its final test concentration was added; • 3. The dose effect as evaluated by a 5-fold serial dilution of the test compound, starting from 10 μM. • 4. After cells incubation for 3 days at 37° C. in a 5% CO2 atmosphere, the effect of the inhibitor on cell proliferation was quantified after adding 50 μL of CTG and testing with luminescence. • 5. The concentration of the compound (EC50) leading to half maximal growth inhibition and the concentration of compound (Absolute IC50) leading to absolute half growth inhibition were determined using a four-parameter curve fit in Graphpad Prism in a plate reader (M1000, Tecan).

[2] = biological target: FGFR4 (Homo sapiens, UniProt P22455); test: FGFR4 Caliper Assay (in vitro biochemical kinase analysis); conditions: Caliper mobility shift, 65 μM ATP, 30° C. 40 minutes; read-out: Enzymatic activity FGFR4 IC50
Method: I. In Vitro Biochemical Kinase Analysis of FGFR4
FGFR4 Caliper Assay was used in the present invention to determine the inhibitory activities • of the compounds against FGFR4. The specific experimental procedure was as follows: 1. The kinase reaction in the present invention was carried out in a 384-well plate, and […] of FGFR4, 65 μM of ATP and 1 μM of peptide (5 Fluo Ahx KKKKEEIYFFFG NH2) were respectively added into the following reaction system. • 2. A reaction system is a mixture solution of 50 mM HEPES, pH 7.5, 1 mM DTT, 0.02% Tween 20, 0.02% BSA, 0.6% DMSO, 10 mM beta glycerol phosphate and 10 μM sodium orthovanadate and 16 mM MgCl2. • 3. The reaction system was incubated at 30° C. for 40 minutes. • 4. The reaction was terminated by adding a stop solution (100 mM HEPES, pH 7.5, 5% DMSO, 0.1% Caliper coating reagent, 10 mM EDTA and 0.015% Brij35). • 5. The culture plate with the terminated kinase reaction was transferred to the Caliper LC 3000 workstation to read the data, the phosphorylated and unphosphorylated peptides were separated by using the Caliper microfluid migration shift technique, and the analyte was transferred by allowing a constant buffer flow through the chip, the migration of the substrate peptide was monitored by the labeled fluorescent signal, and the kinase activity was calculated by using the amount of the phosphate-based peptide formed. • 6. Finally, IC50 values were determined by non-linear regression analysis of percent inhibition at different compound concentrations. II. FGFR4 Cell Proliferation Experiment

FGFR4, sequence (P22455 22-802): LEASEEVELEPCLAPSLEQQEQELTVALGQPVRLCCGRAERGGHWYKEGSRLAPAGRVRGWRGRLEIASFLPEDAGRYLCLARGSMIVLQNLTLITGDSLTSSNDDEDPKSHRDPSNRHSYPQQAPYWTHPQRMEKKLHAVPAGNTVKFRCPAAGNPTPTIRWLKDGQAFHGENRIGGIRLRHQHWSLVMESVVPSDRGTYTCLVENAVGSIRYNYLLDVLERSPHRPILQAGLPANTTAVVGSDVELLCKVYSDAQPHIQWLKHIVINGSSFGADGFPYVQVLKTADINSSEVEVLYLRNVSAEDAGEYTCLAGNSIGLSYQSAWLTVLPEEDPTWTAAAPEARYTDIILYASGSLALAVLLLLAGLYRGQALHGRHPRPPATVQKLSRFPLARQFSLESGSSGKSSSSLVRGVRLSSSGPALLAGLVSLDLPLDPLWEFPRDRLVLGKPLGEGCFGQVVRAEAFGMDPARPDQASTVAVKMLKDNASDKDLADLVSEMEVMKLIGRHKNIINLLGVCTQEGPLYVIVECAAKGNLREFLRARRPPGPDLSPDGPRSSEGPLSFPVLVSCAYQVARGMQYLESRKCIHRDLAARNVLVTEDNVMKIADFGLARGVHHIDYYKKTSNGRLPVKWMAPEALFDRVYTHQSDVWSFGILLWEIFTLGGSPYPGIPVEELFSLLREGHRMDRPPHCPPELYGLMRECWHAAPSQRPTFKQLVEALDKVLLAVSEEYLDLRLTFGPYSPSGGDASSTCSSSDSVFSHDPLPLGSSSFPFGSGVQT

Compound	IC50 [1]	EC50 [1]	IC50 [2]
CN1CCN(Cc2ccc(N(C)C(=O)Nc3cc(NCCF)c(C#N)cn3)nc2C=O)C(=O)C1 [Example 2, 3-(5-cyano-4-((2-fluoroethyl)amino)pyridin-2-yl)-1-(6-formyl-5-((4-methyl-2-oxopiperazin-1-yl)methyl)pyridin-2-yl)-1-methylurea]			8 nM
COC1CC(Nc2cc(NC(=O)N(C)c3ccc(CN4CCN(C)CC4=O)c(C=O)n3)ncc2C#N)C1 (centres unmarked) [Example 8, 3-(5-cyano-4-((3-methoxycyclobutyl)amino)pyridin-2-yl)-1-(6-formyl-5-((4-methyl-2-oxopiperazin-1-yl)methyl)pyridin-2-yl)-1-methylurea]			5.8 nM
COC1(C)CN(c2cc(NC(=O)N(C)c3ccc(CN4CCN(C)CC4=O)c(C=O)n3)ncc2C#N)C1 [Example 11, 3-(5-cyano-4-(3-methoxy-3methylazetidin-1-yl)pyridin-2-yl)-1-(6-formyl-5-((4-methyl-2-oxopiperazin-1-yl)methyl)pyridin-2-yl)-1-methylurea]	177 nM	82.2 nM	6.9 nM
CN1CCN(Cc2ccc(N(C)C(=O)Nc3cc(NC4CCOC4)c(C#N)cn3)nc2C=O)C(=O)C1 (centres unmarked) [Example 14, 3-(5-cyano-4-((tetrahydrofuran-3-yl)amino)pyridin-2-yl)-1-(6-formyl-5-((4-methyl-2-oxopiperazin-1-yl)methyl)pyridin-2-yl)-1-methylurea]	57.4 nM	20.1 nM	5.7 nM
COC1CCN(c2cc(NC(=O)N(C)c3ccc(CN4CCN(C)CC4=O)c(C=O)n3)ncc2C#N)C1 (centres unmarked) [Example 17, 3-(5-cyano-4-(3-methoxypyrrolidin-1-yl)pyridin-2-yl)-1-(6-formyl-5-((4-methyl-2-oxopiperazin-1-yl)methyl)pyridin-2-yl)-1-methylurea]	84.9 nM	38.1 nM	6.5 nM
CN1CCN(Cc2ccc(N(C)C(=O)Nc3cc(NCC4CCCO4)c(C#N)cn3)nc2C=O)C(=O)C1 (centres unmarked) [Example 21, 3-(5-cyano-4-(((tetrahydrofuran-2-yl)methyl)amino)pyridin-2-yl)-1-(6-formyl-5-((4-methyl-2-oxopiperazin-1-yl)methyl)pyridin-2-yl)-1-methylurea]	55.4 nM	22.7 nM	8 nM
CN1CCN(Cc2ccc(N(C)C(=O)Nc3cc(N4CCOCC4)c(C#N)cn3)nc2C=O)C(=O)C1 [Example 24, 3-(5-cyano-4-morpholinopyridin-2-yl)-1-(6-formyl-5-((4-methyl-2-oxopiperazin-1-yl)methyl)pyridin-2-yl)-1-methylurea]	1800 nM	1080 nM	52.2 nM
CN1CCN(Cc2ccc(N(C)C(=O)Nc3cc(N4CCC5(CCOC5)C4)c(C#N)cn3)nc2C=O)C(=O)C1 (centres unmarked) [Example 30, 3-(5-cyano-4-(2-oxa-7-azaspiro[4.4]nonan-7-yl)pyridin-2-yl)-1-(6-formyl-5-((4-methyl-2-oxopiperazin-1-yl)methyl)pyridin-2-yl)-1-methylurea]	206 nM	76.8 nM	
COCCOc1cc(NC(=O)N(C)c2ccc(CN3CCN(C)CC3=O)c(C=O)n2)ncc1C#N [Example 36, 3-(5-cyano-4-(2-methoxyethoxy)pyridin-2-yl)-1-(6-formyl-5-((4-methyl-2-oxopiperazin-1-yl)methyl)pyridin-2-yl)-1-methylurea]	410 nM	190 nM	17.1 nM
N#Cc1cnc(NC(=O)C2(c3cccc(C=O)n3)CC2)cc1NC1CC1 [Example 52, N-(5-cyano-4-(cyclopropylamino)pyridin-2-yl)-1-(6-formylpyridin-2-yl)cyclopropane-1-carboxamide]			16.3 nM
CN1CCN(Cc2ccc(N(C)C(=O)Nc3cc(NC4CC4)c(I)cn3)nc2C=O)C(=O)C1 [Example 56, 3-(4-(cyclopropylamino)-5-iodopyridin-2-yl)-1-(6-formyl-5-((4-methyl-2-oxopiperazin-1-yl)methyl)pyridin-2-yl)-1-methylurea]	223 nM	93 nM	8.1 nM

Other lines, results leading:

IC50 [1]	EC50 [1]	IC50 [2]	Compound
26.2 nM	8.3 nM	2 nM	CN1CCN(Cc2ccc(N(C)C(=O)Nc3cc(NC4CC4)c(C#N)cn3)nc2C=O)C(=O)C1 [Example 1, 3-(5-cyano-4-(cyclopropylamino)pyridin-2-yl)-1-(6-formyl-5-((4-methyl-2-oxopiperazin-1-yl)methyl)pyridin-2-yl)-1-methylurea]
77.4 nM	25.6 nM	3.8 nM	CN1CCN(Cc2ccc(N(C)C(=O)Nc3cc(NCC4CC4)c(C#N)cn3)nc2C=O)C(=O)C1 [Example 4, 3-(5-cyano-4-((cyclopropylmethyl)amino)pyridin-2-yl)-1-(6-formyl-5-((4-methyl-2-oxopiperazin-1-yl)methyl)pyridin-2-yl)-1-methylurea]
63.2 nM	20.4 nM	2.8 nM	CN1CCN(Cc2ccc(N(C)C(=O)Nc3cc(NC4CC(F)(F)C4)c(C#N)cn3)nc2C=O)C(=O)C1 [Example 7, 3-(5-cyano-4-((3,3-difluorocyclobutyl)amino)pyridin-2-yl)-1-(6-formyl-5-((4-methyl-2-oxopiperazin-1-yl)methyl)pyridin-2-yl)-1-methylurea]
48.6 nM	19.3 nM	2.3 nM	CN1CCN(Cc2ccc(N(C)C(=O)Nc3cc(NC4CCC(F)(F)C4)c(C#N)cn3)nc2C=O)C(=O)C1 (centres unmarked) [Example 15, 3-(5-cyano-4-((3,3-difluorocyclopentyl)amino)pyridin-2-yl)-1-(6-formyl-5-((4-methyl-2-oxopiperazin-1-yl)methyl)pyridin-2-yl)-1-methylurea]
118 nM	40.8 nM	2.9 nM	CC(C)Sc1cc(NC(=O)N(C)c2ccc(CN3CCN(C)CC3=O)c(C=O)n2)ncc1C#N [Example 34, 3-(5-cyano-4-(isopropylthio)pyridin-2-yl)-1-(6-formyl-5-((4-methyl-2-oxopiperazin-1-yl)methyl)pyridin-2-yl)-1-methylurea]
100 nM	48.8 nM	3.4 nM	CN1CCN(Cc2ccc(N(C)C(=O)Nc3cc(OCC4CC4)c(C#N)cn3)nc2C=O)C(=O)C1 [Example 39, 3-(5-cyano-4-(cyclopropylmethoxy)pyridin-2-yl)-1-(6-formyl-5-((4-methyl-2-oxopiperazin-1-yl)methyl)pyridin-2-yl)-1-methylurea]
65 nM	27 nM	1.4 nM	CCN(C(=O)Nc1cc(NC2CC2)c(C#N)cn1)c1ccc(CN2CCN(C)CC2=O)c(C=O)n1 [Example 51, 3-(5-cyano-4-(cyclopropylamino)pyridin-2-yl)-1-ethyl-1-(6-formyl-5-((4-methyl-2-oxopiperazin-1-yl)methyl)pyridin-2-yl)urea]
